Laboratory results: US20110262546A1 (priority 2008, published 2011)

What was measured:
ScGT1 cells = details: for % cell viability ± SEM ScGT1: mouse
PrP^Sc in ScN2a cells = PrP^Sc in ScN2a cells (Mus musculus, UniProt P04925); assay: cell-based
ScN2a cells = details: mouse
PrP^Sc in ScGT1 cells = PrP^Sc in ScGT1 cells (Mus musculus, UniProt P04925); assay: cell-based
PrP^Sc in ScGT1 cells, sequence (P04925 23-230 limits assumed): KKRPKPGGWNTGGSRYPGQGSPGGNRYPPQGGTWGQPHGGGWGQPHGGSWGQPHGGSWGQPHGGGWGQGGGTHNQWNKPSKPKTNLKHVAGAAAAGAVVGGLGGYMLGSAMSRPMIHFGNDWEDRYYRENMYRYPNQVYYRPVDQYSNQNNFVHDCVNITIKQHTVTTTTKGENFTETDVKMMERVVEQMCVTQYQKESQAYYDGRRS

PrP^Sc in ScN2a cells, sequence (P04925 23-230 limits assumed): as above

Compound | % cell viability ± SEM ScGT1 (ScGT1 cells) | EC50 (PrP^Sc in ScN2a cells) | % cell viability ± SEM ScN2a (ScN2a cells) | EC50 (PrP^Sc in ScGT1 cells) | cytotoxicity to the neurons (ScGT1 cells) | dead cells (ScGT1 cells)
CN(C)CCCN1c2ccccc2CCc2ccccc21 [Imipramime, imipramine] | 100 ± 7% | 5.5 ± 0.5 µM | 100 ± 5% | 6.2 ± 0.4 µM | – | –
CCN(CC)CCCC(C)Nc1c2ccc(Cl)cc2nc2ccc(OC)cc12 (centres unmarked) [Quinacrine, quinacrine] | 100 ± 4% | – | 100 ± 2% | – | – | –
sodium polystyrenesulfonate [PSS] | – | – | – | – | weak cytotoxicity | around 20%
